We go through twelve molecules from ChEMBL document CHEMBL1201862, “PubChem BioAssay data set” (2004).

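Protocol summary: plate cells (96-well), add compound at 5 concentrations, incubate 48 h, interpolate endpoints linearly. GI50 marks 50% less growth.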 Activity calls are given as the source filed them. No stated cut-off is given here; in the data, active = GI50 up to about 1.1 µM and inactive = higher.

Among the test systems are CAKI-1; COLO 205; EKVX; HCT-116; HOP-62; NCI-H460; NCI-H522; OVCAR-4; OVCAR-8; RXF 393; SF-539; SK-MEL-28; SN12C; SNB-19; SR; UO-31; SF-268; MCF7; MDA-MB-435.
Common to all, as to test: NCI tumour cell line growth inhibition, 48 h

As for `CN(N=O)C(=O)NC(CCCCNC(=O)OCc1ccccc1)C(=O)OCc1ccccc1` (stereo not given), the GI50 was 21.4 µM (inactive) in the assay with CAKI-1; 23.7 µM (inactive) with COLO 205; > 100 µM (inactive) with EKVX; 56.8 µM (inactive) in the assay on HCT-116; 28.5 µM (inactive) with HOP-62; 43.9 µM (inactive) with NCI-H460. Further, the GI50 is 13.1 µM (inactive) with NCI-H522; 71.1 µM (inactive) in the assay on OVCAR-4; 19.2 µM (inactive) in the assay on OVCAR-8; 33.7 µM (inactive) in the assay with RXF 393; 17.4 µM (inactive) in the assay with SF-539; 25 µM (inactive) with SK-MEL-28. Also, the GI50 is 17.6 µM (inactive) in the assay on SN12C, > 100 µM (inactive) in the assay on SNB-19, 14.9 µM (inactive) with SR and 20.2 µM (inactive) in the assay with UO-31.
Turning to `COc1nc2c(nc(N)n2C2OC(CO)C(O)C(O)C2O)c(=O)n1C` (stereo not given), the GI50 with CAKI-1, in the assay on COLO 205, with EKVX, in the assay on HCT-116, with HOP-62 and in the assay with NCI-H460 was > 100 µM (inactive) each time. The GI50 in the assay on NCI-H522, in the assay on OVCAR-4, in the assay on OVCAR-8, in the assay with RXF 393, in the assay with SF-268 and in the assay with SF-539 was > 100 µM (inactive) in each case. Also, the GI50 in the assay on SK-MEL-28, with SN12C, in the assay on SNB-19, with SR and in the assay on UO-31 was > 100 µM (inactive) throughout.
With `O=C(/C=C/c1ccc(OCC(=O)N2CCN(c3ccccc3)CC2)cc1)c1ccccc1`, the GI50 in the assay on CAKI-1 was 93.3 µM (inactive); in the assay on COLO 205 it was 26.1 µM (inactive); in the assay on EKVX, 34.7 µM (inactive); in the assay on HCT-116, 11.7 µM (inactive); in the assay on HOP-62 it was 32.8 µM (inactive); with NCI-H460 it was > 46.1 µM (inactive). The GI50 was 3.6 µM (inactive) with NCI-H522; 14.3 µM (inactive) in the assay with OVCAR-4; 10.9 µM (inactive) in the assay on OVCAR-8; 7.85 µM (inactive) in the assay with RXF 393; 26.7 µM (inactive) with SF-268; 16.9 µM (inactive) with SF-539. In addition, the GI50 was 16 µM (inactive) in the assay on SK-MEL-28; 19.7 µM (inactive) with SN12C; 20.1 µM (inactive) in the assay on SNB-19; 2.72 µM (inactive) in the assay on SR; 15.2 µM (inactive) in the assay with UO-31.
As for `CNC(=S)/N=C(\N)N(C)C`, the GI50 with CAKI-1, in the assay with COLO 205, with EKVX, in the assay with HCT-116, in the assay on HOP-62 and in the assay on NCI-H460 was > 100 µM (inactive) in each case. Moreover, the GI50 in the assay on NCI-H522 was > 100 µM (inactive); in the assay on OVCAR-4 it was > 10 µM (inactive); in the assay with OVCAR-8, > 100 µM (inactive); in the assay on RXF 393, > 100 µM (inactive); in the assay with SF-268, > 100 µM (inactive); in the assay on SF-539, > 100 µM (inactive). Moreover, the GI50 with SK-MEL-28, in the assay with SN12C, in the assay with SNB-19, in the assay with SR and in the assay with UO-31 was > 100 µM (inactive) in each case.
Regarding `Oc1ccc(Br)cc1/C=N/c1ccc(/N=C/c2cc(Br)ccc2O)cc1`, the GI50 in the assay on CAKI-1, in the assay with EKVX, with HCT-116, in the assay with NCI-H460, in the assay on OVCAR-4 and in the assay with OVCAR-8 was > 100 µM (inactive) throughout. For the same molecule, the GI50 in the assay with RXF 393, in the assay with SF-268, with SF-539, in the assay on SN12C, with SNB-19 and in the assay with SR was > 100 µM (inactive) in each case. Besides, the GI50 in the assay on UO-31 is > 100 µM (inactive).
Consider `CC1=C(/C=C/C(C)=C/C2CC(N(C)C)=CC(=O)O2)C(C)(C)CCC1` (stereo not given), for which the GI50 is 22.2 µM (inactive) in the assay on CAKI-1; 14.1 µM (inactive) in the assay on COLO 205; 14.4 µM (inactive) in the assay on EKVX; 12.9 µM (inactive) in the assay with HCT-116; 16.9 µM (inactive) in the assay with HOP-62; 17.7 µM (inactive) with NCI-H460. Besides, the GI50 in the assay with NCI-H522 was > 10 µM (inactive); with OVCAR-4, 16 µM (inactive); in the assay on OVCAR-8, 15.5 µM (inactive); with RXF 393, 14.9 µM (inactive); with SF-268, 21 µM (inactive); with SF-539 it was 16.5 µM (inactive). Besides, the GI50 with SK-MEL-28 is 16.2 µM (inactive); in the assay with SN12C it was 15.5 µM (inactive); in the assay on SNB-19, 15.2 µM (inactive); with SR, 8.09 µM (inactive); with UO-31, 10.7 µM (inactive).
As for `CC(C)(C)OC(=O)N1NC(c2ccccc2)CC1c1ccccc1` (stereo not given), the GI50 in the assay with CAKI-1 was 35 µM (inactive); in the assay with COLO 205 it was 20 µM (inactive); in the assay with EKVX it was 33.7 µM (inactive); in the assay on HCT-116, 29.7 µM (inactive); in the assay with HOP-62, 50.8 µM (inactive); with MCF7, 23.7 µM (inactive). Besides, the GI50 in the assay with MDA-MB-435 was 24.3 µM (inactive); in the assay on NCI-H460 it was 30.4 µM (inactive); in the assay with NCI-H522, 31.6 µM (inactive); in the assay with OVCAR-8 it was 35.3 µM (inactive); in the assay on RXF 393 it was 15.8 µM (inactive); with SF-268, 65.2 µM (inactive). The GI50 is 42.5 µM (inactive) with SF-539, 45.1 µM (inactive) in the assay on SN12C, 27.2 µM (inactive) in the assay on SR and 15.7 µM (inactive) in the assay on UO-31.
As for `CC[C@@H]1CC[C@@H]2[C@H](CC[C@]3(C)[C@@H](OS(=O)(=O)c4ccc(C)cc4)CC[C@@H]23)[C@H]1COS(=O)(=O)c1ccc(C)cc1`, the GI50 in the assay with EKVX, with HCT-116, with MCF7, in the assay on MDA-MB-435, in the assay with NCI-H460 and in the assay with OVCAR-4 was > 100 µM (inactive) throughout. Also, the GI50 with OVCAR-8, with RXF 393, in the assay on SF-268, in the assay on SF-539, in the assay on SK-MEL-28 and in the assay with SN12C was > 100 µM (inactive) each time. Besides, the GI50 in the assay with SNB-19 is > 100 µM (inactive); with SR it was > 100 µM (inactive); in the assay on UO-31, 51.4 µM (inactive).
As to `CCOC(=O)C1=C(C)N(NC(=O)Nc2ccccc2)C(=O)C1=P(c1ccccc1)(c1ccccc1)c1ccccc1`, the GI50 is 44.7 µM (inactive) with CAKI-1; 25.3 µM (inactive) in the assay on COLO 205; 54.3 µM (inactive) in the assay with EKVX; 39.1 µM (inactive) with HCT-116; > 100 µM (inactive) in the assay on HOP-62; 38.6 µM (inactive) in the assay with NCI-H460. For the same molecule, the GI50 in the assay with NCI-H522 is 19.4 µM (inactive); in the assay on OVCAR-4, 35.2 µM (inactive); with OVCAR-8, 40 µM (inactive); with RXF 393, 28 µM (inactive); in the assay on SF-268 it was > 100 µM (inactive); with SF-539 it was 28.2 µM (inactive). Moreover, the GI50 with SN12C is 28.1 µM (inactive); in the assay with SNB-19, > 100 µM (inactive); in the assay with SR, 16.9 µM (inactive); in the assay on UO-31, 74.6 µM (inactive).
Take `Nc1ccc(/N=N/c2ccc(-c3ccc(/N=N/c4c(S(=O)(=O)O)cc5cc(S(=O)(=O)O)c(/N=N/c6ccc([N+](=O)[O-])cc6)c(N)c5c4O)cc3)cc2)c2cc(S(=O)(=O)O)ccc12`: the GI50 in the assay on CAKI-1, in the assay with COLO 205, in the assay on EKVX, in the assay with HCT-116, in the assay with HOP-62 and in the assay with NCI-H460 was > 100 µM (inactive) each time. The GI50 in the assay on NCI-H522, with OVCAR-4, in the assay with OVCAR-8, with RXF 393, with SF-268 and with SF-539 was > 100 µM (inactive) throughout. The GI50 in the assay on SK-MEL-28, in the assay with SN12C, with SNB-19, in the assay with SR and in the assay on UO-31 was > 100 µM (inactive) each time.
Regarding `COc1cc([C@@H]2c3cc4c(c(O)c3C[C@H]3COC(=O)[C@@H]32)OCO4)cc(OC)c1O`, the GI50 with CAKI-1 was < 0.02 µM (active); with COLO 205, 0.0281 µM (active); in the assay on EKVX, 0.0351 µM (active); in the assay on HCT-116, 0.0205 µM (active); in the assay with HOP-62 it was < 0.02 µM (active); in the assay with MCF7 it was 0.0377 µM (active). For the same molecule, the GI50 is 0.0249 µM (active) in the assay with OVCAR-8; 0.233 µM (active) with RXF 393; < 0.02 µM (active) with SF-268; 0.033 µM (active) in the assay on SN12C; 0.796 µM (active) in the assay on SNB-19; 0.00307 µM (active) in the assay with SR. Further, the GI50 in the assay with UO-31 was < 0.02 µM (active).
Take `C/C=C/C[C@@H](C)[C@@H](O)[C@H]1C(=O)N[C@@H](CC)C(=O)N(C)CC(=O)N(C)[C@@H](CC(C)C)C(=O)N[C@@H](C(C)C)C(=O)N(C)[C@@H](CC(C)C)C(=O)N[C@@H](C)C(=O)N[C@H](C)C(=O)N(C)[C@@H](CC(C)C)C(=O)N(C)[C@@H](CC(C)C)C(=O)N(C)[C@@H](C(C)C)C(=O)N1C` [CYCLOSPORINE]: the GI50 with CAKI-1 was 6.98 µM (inactive); in the assay with COLO 205 it was 1.77 µM (inactive); in the assay on EKVX, 10.4 µM (inactive); with HOP-62 it was 3.91 µM (inactive); with NCI-H460 it was 3.87 µM (inactive); in the assay on NCI-H522, 5.48 µM (inactive). For the same molecule, the GI50 was 4.18 µM (inactive) in the assay with OVCAR-4; 12.2 µM (inactive) in the assay on OVCAR-8; 7.45 µM (inactive) in the assay with RXF 393; 7.26 µM (inactive) with SF-268; 4.3 µM (inactive) with SF-539; 5.68 µM (inactive) in the assay with SK-MEL-28. Moreover, the GI50 with SN12C is 3.95 µM (inactive); in the assay on SNB-19, 10.5 µM (inactive); in the assay with SR, 1.47 µM (inactive); in the assay with UO-31, 3.26 µM (inactive).
